Results from patent US9487504B2, “Imidazolyl analogs as syk inhibitors” (Merck Sharp & Dohme Corp., priority 2012, dated 2016).
Like-named read-outs stand apart in the source and are kept apart here.

Target: T1, recombinant human GST-Syk (Homo sapiens, UniProt P43405)
T1 construct: purchased Carna Biosciences 08-176
Assay: Homogeneous Time-Resolved Fluorescence (HTRF) assay for the recombinant human Syk enzyme
Format: biochemical
Settings: ATP 25 μM, 10-dose titration
Experimental: Syk inhibition may be determined using the following assay protocol:
Homogeneous Time-Resolved Fluorescence (HTRF) Assay for the Recombinant Human Syk Enzyme:
A recombinant GST-hSyk fusion protein was used to measure potency of compounds to inhibit human Syk activity. The recombinant human GST-Syk (Carna Biosciences #08-176) ([…]) was incubated with various concentrations of the inhibitor diluted in DMSO (0.1% final concentration) for 10 minutes at room temperature in 15 mM Tris-HCl (pH 7.5), 0.01% tween 20, 2 mM DTT in 384 well plate format. To initiate the reaction the biotinylated substrate peptide (250 nM final concentration) that contains the phosphorylation site for Syk was added with magnesium (5 mM final concentration) and ATP (25 μM final concentration). Final volume of the reaction was 10 μL. Phosphorylation of the peptide was allowed to proceed for 45 minutes at room temperature. To quench the reaction and detect the phosphorylated product, 2 nM of a Europium-anti-phosphotyrosine antibody (Perkin Elmer #AD0161) and 70 nM SA-APC (Perkin-Elmer #CR130-100) were added together in 15 mM Tris pH 7.5, 40 mM EDTA, 0.01% tween 20. Final volume of the quenching solution was 10 μL. The resulting HTRF signal was measured after 30 minutes on an EnVision (Perkin-Elmer) reader using a time-resolved fluorescence protocol. IC50 was determined following 10-dose titration (10 μM to 0.508 nM) and four parameter logistic curve fitting using the Merck Assay Data Analyzer. The rhSyk activity (IC50) is expressed as +++ (100 nM or less), ++ (between 100 and 1000 nM), + (between 1 and 10 μM).

CCOC(=O)C1(C)CC=C(c2cn(-c3cc(C)cc(Nc4nccc(C(F)(F)F)n4)c3)cn2)CC1 (racemic) [Example 19, Ethyl 1-methyl-4-[1-(3-methyl-5-{[4-(trifluoromethyl)-pyrimidin-2-yl]amino}-phenyl)-1H-imidazol-4-yl]cyclohex-3-ene-1-carboxylate]
IC50 (read-out: rhSYK Activity): 100 to 1000 nM

Cc1cc(Nc2nccc(C(F)(F)F)n2)cc(-n2cnc(C3=CCC(C)(C(=O)O)CC3)c2)c1 (racemic) [Example 21, 1-methyl-4-[1-(3-methyl-5-{[4-(trifluoromethyl)-pyrimidin-2-yl]amino}-phenyl)-1H-imidazol-4-yl]cyclohex-3-ene-1-carboxylic acid]
IC50 (read-out: rhSYK Activity): ≤ 100 nM

Cc1cc(Nc2nccc(C(F)(F)F)n2)cc(-n2cnc(C3(O)CCC(C(=O)O)C(C)(C)C3)c2)c1 (racemic) [Example 25, 4-hydroxy-2,2-dimethyl-4-[1-(3-methyl-5-{[4-(trifluoromethyl)pyrimidin-2-yl]amino}phenyl)-1H-imidazol-4-yl]-cyclohexanecarboxylic acid]
IC50 (read-out: rhSYK Activity): ≤ 100 nM

Cc1cc(Nc2nccc(C(F)(F)F)n2)cc(-n2cnc(C(C)(O)CO)c2)c1 (racemic) [Example 113, (rac)-2-[1-(3-Methyl-5-{[4-(trifluoromethyl)pyrimidin-2-yl]amino}phenyl)-1H-imidazol-4-yl]propane-1,2-diol]
IC50 (read-out: rhSYK Activity): ≤ 100 nM

Cc1cc(Nc2nccc(C(F)(F)F)n2)cc(-n2cnc(C(C)(O)[C@H]3CC[C@H](C(N)=O)CC3)c2)c1 (relative stereo) [Example 7, trans-4-{1-hydroxy-1-[1-(3-methyl-5-{[4-(trifluoromethyl)pyrimidin-2-yl]amino}phenyl)-1H-imidazol-4-yl]ethyl]cyclohexanecarboxamide]
IC50 (read-out: rhSYK Activity): ≤ 100 nM

Cc1cc(Nc2nccc(C)n2)cc(-n2cnc(C(C)(O)[C@H]3CC[C@H](C(=O)O)CC3)c2)c1 (relative stereo) [Example 9, trans-4-[1-hydroxy-1-(1-{3-methyl-5-[(4-methyl-pyrimidin-2-yl)amino]-phenyl}-1H-imidazol-4-yl)ethyl]cyclohexane-carboxylic acid]
IC50 (read-out: rhSYK Activity): ≤ 100 nM
IC50 (read-out: rhSYK IC50): 15 nM

Cc1cc(Nc2nccc(C(F)(F)F)n2)cc(-n2cnc(C(C)(O)[C@H]3CC[C@H](C(=O)O)CC3)c2)c1 (relative stereo) [Example 10, trans-4-{1-hydroxy-1-[1-(3-methyl-5-{[4-(trifluoromethyl)pyrimidin-2-yl]amino}phenyl)-1H-imidazol-4-yl]ethyl}-cyclohexanecarboxylic acid]
IC50 (read-out: rhSYK Activity): ≤ 100 nM
IC50 (read-out: rhSYK IC50): 1.78 nM

CCCCOC(=O)[C@H]1CC[C@H](C(C)(O)c2cn(-c3cc(C)cc(Nc4nccc(C)n4)c3)cn2)CC1 (relative stereo) [Example 11, Butyl trans-4-[1-hydroxy-1-(1-{3-methyl-5-[(4-methylpyrimidin-2-yl)amino]phenyl}-1H-imidazol-4-yl)ethyl]-cyclohexanecarboxylate]
IC50 (read-out: rhSYK Activity): 100 to 1000 nM

CCCCOC(=O)[C@H]1CC[C@H](C(C)(O)c2cn(-c3cc(C)cc(Nc4nccc(C(F)(F)F)n4)c3)cn2)CC1 (relative stereo) [Example 12, Butyl trans-4-{1-hydroxy-1-[1-(3-methyl-5-[(4-(trifluoromethyl)-pyrimidin-2-yl]amino}-phenyl)-1H-imidazol-4-yl]ethyl}cyclohexane-carboxylate]
IC50 (read-out: rhSYK Activity): 100 to 1000 nM

Cc1cc(Nc2nccc(C(F)(F)F)n2)cc(-n2cnc([C@@]3(O)CC[C@@](C)(C(=O)O)C[C@@H]3O)c2)c1 (single isomer, unassigned) [5 (isomer 1)]
IC50 (read-out: rhSYK Activity): ≤ 100 nM

Cc1cc(Nc2nccc(C(F)(F)F)n2)cc(-n2cnc([C@]3(O)CC[C@@](C)(C(=O)O)C[C@H]3O)c2)c1 (single isomer, unassigned) [5 (isomer 2)]
IC50 (read-out: rhSYK Activity): ≤ 100 nM

CCOC(=O)C1CCC(O)(c2cn(-c3cc(C)cc(Nc4nccc(C(F)(F)F)n4)c3)cn2)CC1 (centres unmarked) [1, Step 1]
IC50 (read-out: rhSYK IC50): 12.7 nM

Cc1cc(Nc2nccc(C(F)(F)F)n2)cc(-n2cnc([C@H]3CC[C@@H](C(=O)O)CC3)c2)c1 [2 (cis), Cis-4-[1-(3-methyl-5-{[4-(trifluoromethyl)pyrimidin-2-yl]amino}phenyl)-1H-imidazol-4-yl]cyclohexanecarboxylic acid]
IC50 (read-out: rhSYK Activity): ≤ 100 nM
IC50 (read-out: rhSYK IC50): 12.5 nM

Cc1cc(Nc2nccc(C(F)(F)F)n2)cc(-n2cnc([C@H]3CC[C@H](C(=O)O)CC3)c2)c1 [2 (trans), Trans-4-[1-(3-methyl-5-{[4-(trifluoromethyl)pyrimidin-2-yl]amino}phenyl)-1H-imidazol-4-yl]cyclohexanecarboxylic acid]
IC50 (read-out: rhSYK Activity): ≤ 100 nM
IC50 (read-out: rhSYK IC50): 1.2 nM

CNC(=O)[C@H]1CC[C@](O)(c2cn(-c3cc(C)cc(Nc4nccc(C(F)(F)F)n4)c3)cn2)CC1 [Example 1, Cis-4-hydroxy-N-methyl-4-[1-(3-methyl-5-{[4-(trifluoromethyl)pyrimidin-2-yl]amino}phenyl)-1H-imidazol-4-yl]cyclohexanecarboxamide]
IC50 (read-out: rhSYK Activity): ≤ 100 nM
IC50 (read-out: rhSYK IC50): 6.1 nM

Cc1cc(Nc2nccc(C(F)(F)F)n2)cc(-n2cnc(C3=CCC(C(=O)O)CC3)c2)c1 (centres unmarked) [Example 3, 4-[1-(3-methyl-5-{[4-(trifluoromethyl)pyrimidin-2-yl]amino}phenyl)-1H-imidazol-4-yl]cyclohex-3-ene-1-carboxylic acid]
IC50 (read-out: rhSYK Activity): ≤ 100 nM

Cc1cc(Nc2nccc(C(F)(F)F)n2)cc(-n2cnc(C3=CCC(C(=O)O)C(C)(C)C3)c2)c1 (centres unmarked) [Example 4, 6,6-Dimethyl-4-[1-(3-methyl-5-{[4-(trifluoromethyl)pyrimidin-2-yl]amino}phenyl)-1H-imidazol-4-yl]cyclohex-3-ene-1-carboxylic acid]
IC50 (read-out: rhSYK Activity): ≤ 100 nM
IC50 (read-out: rhSYK IC50): 0.9 nM

Cc1cc(Nc2nccc(C(F)(F)F)n2)cc(-n2cnc(C3(O)CCC(CC(N)=O)CC3)c2)c1 (stereo not drawn) [Example 6, 2-{cis-4-hydroxy-4-[1-(3-methyl-5-{[4-(trifluoromethyl)pyrimidin-2-yl]amino}phenyl)-1H-imidazol-4-yl]cyclohexyl)acetamide]
IC50 (read-out: rhSYK Activity): ≤ 100 nM

Cc1cc(Nc2nccc(C3CC3)n2)cc(-n2cnc(C[C@H](O)C(=O)O)c2)c1 [Example 8, (2S)-3-(1-{3-[(4-cyclopropylpyrimidin-2-yl)amino]-5-methylphenyl}-1H-imidazol-4-yl)-2-hydroxypropanoic acid]
IC50 (read-out: rhSYK Activity): ≤ 100 nM

Cc1cc(Nc2cc(C(F)(F)F)ccn2)nc(-n2cnc([C@]3(O)CC[C@H](CC(=O)O)CC3)c2)c1 [Example 13, {trans-4-hydroxy-4-[1-(4-methyl-6-{[4-(trifluoromethyl)pyridin-2-yl]amino}pyridin-2-yl)-1H-imidazol-4-yl]cyclohexyl}acetic acid]
IC50 (read-out: rhSYK Activity): ≤ 100 nM

Cc1cc(Nc2cc(C(F)(F)F)ccn2)nc(-n2cnc([C@]3(O)CC[C@@H](CC(=O)O)CC3)c2)c1 [Example 14, {cis-4-hydroxy-4-[1-(4-methyl-6-{[4-(trifluoromethyl)pyridin-2-yl]amino}pyridin-2-yl)-1H-imidazol-4-yl]cyclohexyl}acetic acid]
IC50 (read-out: rhSYK Activity): ≤ 100 nM
IC50 (read-out: rhSYK IC50): 0.861 nM

Cc1cc(Nc2nccc(C(F)(F)F)n2)cc(-n2cnc([C@]3(O)CC[C@H](CC(=O)O)CC3)c2)c1 [Example 15, {trans-4-hydroxy-4-[1-(3-methyl-5-{[4-(trifluoromethyl)pyrimidin-2-yl]amino}phenyl)-1H-imidazol-4-yl]-cyclohexyl}acetic acid]
IC50 (read-out: rhSYK Activity): ≤ 100 nM
